Data set [1] concerns stem IA (HIV-1 RRE RNA hairpin). Put plainly: NMR of Rev complexes with stem IA. It counts as binding. The following applies: 288 K.
Data set [2] relates to stem IIB (HIV-1 RRE RNA hairpin). Put plainly: NMR of Rev complexes with stem IIB. It counts as binding. The following applies: 288 K.
For data set [3] the following is noted: in the absence of high salt; cited from earlier work.
A short description of data set [4]: Solubility of Rev protein. It counts as physicochemical. The following applies: in the absence of RNA.

The source of these data is PMC4801481 (Biochemistry, 2015).

Where two headings read alike, the source gives them in different places.

As for “RevDO: Truncated HIV-1 Rev (residues 9–64) with mutated dimerization (L12 → S, L60 → R) and higher-order oligomerization (L18 → Q, I55 → N) surfaces”, the “RNA imino resonances on RevDO binding” value in data set [1] (1D 1H NMR, pH 6.5, 0.1 M KCl) is recorded as “almost identical to those obtained with the Rev–ARM peptide”; in data set [2] (1D 1H NMR, pH 6.5, 0.1 M KCl) it was “almost identical to those obtained with the Rev–ARM peptide”. Also, the “number of backbone amide resonances” value is listed as roughly 40 backbone amide resonances in data set [1] (1H–15N HSQC, 15N-RevDO bound to IA, 0.4 mM, pH 6.5) and roughly 50 backbone amide resonances in data set [2] (1H–15N HSQC, 15N-RevDO bound to IIB, 0.4 mM, pH 6.5). Further, the “arginine Hε protons” value was “mostly absent with IA” in data set [1] (1H–15N HSQC, RevDO bound to IA) and “well resolved with IIB” in data set [2] (1H–15N HSQC, RevDO bound to IIB). In addition, the “1H–15N HSQC peak appearance” value in data set [1] (15N-RevDO bound to IA, 0.4 mM, pH 6.5) is “fewer, broader peaks”; in data set [2] (15N-RevDO bound to IIB, 0.4 mM, pH 6.5), “reasonably well-resolved peaks”. Moreover, the “imino proton of Trp45” value in data set [2] (1H–15N HSQC, RevDO complexes, IIB versus IA) is listed as “observed only with IIB”.

Consider “Rev protein: viral regulatory protein Rev of HIV-1”, for which the solubility result in data set [3] is listed as “poorly soluble in the absence of high salt”; in data set [4], “poor solubility of Rev in the absence of RNA”.
